Assay results reported in US20190322676A1, “CERAMIDE GALACTOSYLTRANSFERASE INHIBITORS FOR THE TREATMENT OF DISEASE” (BioMarin Pharmaceutical Inc., priority 2016, published 2019).

Molecular target: T1, human CGT (ceramide galactosyltransferase), CHO/CGT lysate (Homo sapiens, UniProt Q16880)
T1 construct: Full-length human CGT cDNA was cloned into the BamH1/Xho1 site of pcDNA3.1 (+); expressed in transfected cells; host or cells: Chinese hamster ovary (CHO) cells; lysate prepared with M-PER
T1 sequence (Q16880 21-541): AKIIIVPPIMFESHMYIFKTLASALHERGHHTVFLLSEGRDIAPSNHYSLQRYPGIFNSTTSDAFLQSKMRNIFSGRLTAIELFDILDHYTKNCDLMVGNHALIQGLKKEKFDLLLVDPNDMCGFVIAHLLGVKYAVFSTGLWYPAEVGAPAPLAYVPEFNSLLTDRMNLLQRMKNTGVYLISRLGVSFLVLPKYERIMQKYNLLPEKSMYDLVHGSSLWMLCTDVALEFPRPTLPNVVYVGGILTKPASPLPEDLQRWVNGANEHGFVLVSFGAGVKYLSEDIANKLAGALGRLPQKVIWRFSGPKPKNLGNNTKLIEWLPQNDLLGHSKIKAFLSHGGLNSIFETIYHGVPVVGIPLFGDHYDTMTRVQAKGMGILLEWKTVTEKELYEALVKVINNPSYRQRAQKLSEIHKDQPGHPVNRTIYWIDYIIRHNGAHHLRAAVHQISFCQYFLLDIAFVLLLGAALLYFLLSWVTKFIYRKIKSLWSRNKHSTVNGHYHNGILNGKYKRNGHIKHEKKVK
Assay: CGT enzyme assay, RapidFire/MS/MS readout with 0.01% Tween added (Table 1 ranges with two asterisks **)
Assay type: biochemical
Details: CGT enzymatic assay; range with two asterisks (**): RapidFire/MS/MS method with 0.01% Tween added
How it was run: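 IC50s come from variable-slope dose-response fits of internal-standard-normalized C6-NBD-dihydro-galactosylceramide, measured by RapidFire/MS/MS (ESI negative). Reactions: 1 h, 37 °C, human CGT-expressing CHO lysate (4 μg), 0.001–50 μM compound, 10 μM NBD-dihydro-ceramide, 17.5 μM UDP-galactose, 0.5% DMSO, pH 7.2; 0.01% Tween 80 added for ** values.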

| IC50 [µM] | Compound |
| --- | --- |
| 1 to 10 | COc1cc(C(F)(F)[C@H](NS(=O)(=O)c2ccc(OCC3CCCCC3)cc2)C(=O)N2C[C@H]3CNC[C@H]3C2)ccc1-c1ccc(Cl)cc1 [Compound 190-1, N-((R)-1-(4′-chloro-2-methoxy-[1,1′-biphenyl]-4-yl)-1,1-difluoro-3-((3aR,6aS)-hexahydropyrrolo[3,4-c]pyrrol-2(1H)-yl)-3-oxopropan-2-yl)-4-(cyclohexylmethoxy)benzenesulfonamide] |
| 30 to 100 | COc1cc(C(F)(F)[C@@H](NS(=O)(=O)c2ccc(OCC3CCCCC3)cc2)C(=O)N2C[C@H]3CNC[C@H]3C2)ccc1-c1ccc(Cl)cc1 [Compound 190-2, N-((S)-1-(4′-chloro-2-methoxy-[1,1′-biphenyl]-4-yl)-1,1-difluoro-3-((3aR,6aS)-hexahydropyrrolo[3,4-c]pyrrol-2(1H)-yl)-3-oxopropan-2-yl)-4-(cyclohexylmethoxy)benzenesulfonamide] |
| < 1 | O=C([C@@H](NS(=O)(=O)c1ccc2cc(OC3CCCC3)ccc2c1)C(F)(F)c1ccc(-c2ccc(Cl)cc2)cc1)N1CCC12CNC2 [Compound 191-1, (R)-N-(1-(4′-chloro-[1,1′-biphenyl]-4-yl)-1,1-difluoro-3-oxo-3-(1,6-diazaspiro[3.3]heptan-1-yl)propan-2-yl)-6-(cyclopentyloxy)naphthalene-2-sulfonamide] |
| 1 to 10 | O=C([C@H](NS(=O)(=O)c1ccc2cc(OC3CCCC3)ccc2c1)C(F)(F)c1ccc(-c2ccc(Cl)cc2)cc1)N1CCC12CNC2 [Compound 191-2, (S)-N-(1-(4′-chloro-[1,1′-biphenyl]-4-yl)-1,1-difluoro-3-oxo-3-(1,6-diazaspiro[3.3]heptan-1-yl)propan-2-yl)-6-(cyclopentyloxy)naphthalene-2-sulfonamide] |
| 1 to 10 | O=C([C@@H](NS(=O)(=O)c1ccc2cc(OC3CCCC3)ccc2c1)C(F)(F)c1ccc(-c2ccc(Cl)cc2)cc1)N1CC[C@H]2CNC[C@H]21 [Compound 192-1, N-((R)-1-(4′-chloro-[1,1′-biphenyl]-4-yl)-1,1-difluoro-3-((3aS,6aS)-hexahydropyrrolo[3,4-b]pyrrol-1(2H)-yl)-3-oxopropan-2-yl)-6-(cyclopentyloxy)naphthalene-2-sulfonamide] |
| 10 to 30 | O=C([C@H](NS(=O)(=O)c1ccc2cc(OC3CCCC3)ccc2c1)C(F)(F)c1ccc(-c2ccc(Cl)cc2)cc1)N1CC[C@@H]2CNC[C@@H]21 [Compound 192-2, N-((S)-1-(4′-chloro-[1,1′-biphenyl]-4-yl)-1,1-difluoro-3-((3aR,6aR)-hexahydropyrrolo[3,4-b]pyrrol-1(2H)-yl)-3-oxopropan-2-yl)-6-(cyclopentyloxy)naphthalene-2-sulfonamide] |
| < 1 | O=C([C@@H](NS(=O)(=O)c1ccc2cc(OC3CCCC3)ccc2c1)C(F)(F)c1ccc(-c2ccc(Cl)cc2)cc1)N1CC[C@@H]2CNC[C@@H]21 [Compound 192-3, N-((R)-1-(4′-chloro-[1,1′-biphenyl]-4-yl)-1,1-difluoro-3-((3aR,6aR)-hexahydropyrrolo[3,4-b]pyrrol-1(2H)-yl)-3-oxopropan-2-yl)-6-(cyclopentyloxy)naphthalene-2-sulfonamide] |
| 30 to 100 | O=C([C@H](NS(=O)(=O)c1ccc2cc(OC3CCCC3)ccc2c1)C(F)(F)c1ccc(-c2ccc(Cl)cc2)cc1)N1CC[C@H]2CNC[C@H]21 [Compound 192-4, N-((S)-1-(4′-chloro-[1,1′-biphenyl]-4-yl)-1,1-difluoro-3-((3aS,6aS)-hexahydropyrrolo[3,4-b]pyrrol-1(2H)-yl)-3-oxopropan-2-yl)-6-(cyclopentyloxy)naphthalene-2-sulfonamide] |
| < 1 | C=C(c1ccc(C(F)(F)[C@H](NS(=O)(=O)c2ccc(OCC3CCCCC3)cc2)C(=O)N2CCC(N)CC2)cc1)C(F)(F)F [Compound 193-1, (R)-N-(3-(4-aminopiperidin-1-yl)-1,1-difluoro-3-oxo-1-(4-(3,3,3-trifluoroprop-1-en-2-yl)phenyl)propan-2-yl)-4-(cyclohexylmethoxy)benzenesulfonamide] |
| 30 to 100 | C=C(c1ccc(C(F)(F)[C@@H](NS(=O)(=O)c2ccc(OCC3CCCCC3)cc2)C(=O)N2CCC(N)CC2)cc1)C(F)(F)F [Compound 193-2, (S)-N-(3-(4-aminopiperidin-1-yl)-1,1-difluoro-3-oxo-1-(4-(3,3,3-trifluoroprop-1-en-2-yl)phenyl)propan-2-yl)-4-(cyclohexylmethoxy)benzenesulfonamide] |
| 1 to 10 | O=C([C@@H](NS(=O)(=O)c1ccc(OCC2CCCCC2)cc1)C(F)(F)c1ccc(-c2ccc(Cl)cc2)cc1)N1CC[C@H]2CNC[C@H]21 [Compound 195-1, N-((R)-1-(4′-chloro-[1,1′-biphenyl]-4-yl)-1,1-difluoro-3-((3aS,6aS)-hexahydropyrrolo[3,4-b]pyrrol-1(2H)-yl)-3-oxopropan-2-yl)-4-(cyclohexylmethoxy)benzenesulfonamide] |
| 30 to 100 | O=C([C@H](NS(=O)(=O)c1ccc(OCC2CCCCC2)cc1)C(F)(F)c1ccc(-c2ccc(Cl)cc2)cc1)N1CC[C@@H]2CNC[C@@H]21 [Compound 195-2, N-((S)-1-(4′-chloro-[1,1′-biphenyl]-4-yl)-1,1-difluoro-3-((3aR,6aR)-hexahydropyrrolo[3,4-b]pyrrol-1(2H)-yl)-3-oxopropan-2-yl)-4-(cyclohexylmethoxy)benzenesulfonamide] |
| 1 to 10 | O=C([C@@H](NS(=O)(=O)c1ccc(OCC2CCCCC2)cc1)C(F)(F)c1ccc(-c2ccc(Cl)cc2)cc1)N1CC[C@@H]2CNC[C@@H]21 [Compound 195-3, N-((R)-1-(4′-chloro-[1,1′-biphenyl]-4-yl)-1,1-difluoro-3-((3aR,6aR)-hexahydropyrrolo[3,4-b]pyrrol-1(2H)-yl)-3-oxopropan-2-yl)-4-(cyclohexylmethoxy)benzenesulfonamide] |
| 30 to 100 | O=C([C@H](NS(=O)(=O)c1ccc(OCC2CCCCC2)cc1)C(F)(F)c1ccc(-c2ccc(Cl)cc2)cc1)N1CC[C@H]2CNC[C@H]21 [Compound 195-4, N-((S)-1-(4′-chloro-[1,1′-biphenyl]-4-yl)-1,1-difluoro-3-((3aS,6aS)-hexahydropyrrolo[3,4-b]pyrrol-1(2H)-yl)-3-oxopropan-2-yl)-4-(cyclohexylmethoxy)benzenesulfonamide] |
| 1 to 10 | NC1CCN(C(=O)[C@@H](NS(=O)(=O)c2ccc(OCC3CCCCC3)cc2)C(F)(F)c2ccc(C3(C(F)(F)F)CC3)cc2)CC1 [Compound 196-1, (R)-N-(3-(4-aminopiperidin-1-yl)-1,1-difluoro-3-oxo-1-(4-(1-(trifluoromethyl)cyclopropyl)phenyl)propan-2-yl)-4-(cyclohexylmethoxy)benzenesulfonamide] |
| 10 to 30 | NC1CCN(C(=O)[C@H](NS(=O)(=O)c2ccc(OCC3CCCCC3)cc2)C(F)(F)c2ccc(C3(C(F)(F)F)CC3)cc2)CC1 [Compound 196-2, (S)-N-(3-(4-aminopiperidin-1-yl)-1,1-difluoro-3-oxo-1-(4-(1-(trifluoromethyl)cyclopropyl)phenyl)propan-2-yl)-4-(cyclohexylmethoxy)benzenesulfonamide] |
| < 1 | COc1cc(C(F)(F)[C@H](NS(=O)(=O)c2ccc3cc(OC4CCCC4)ccc3c2)C(=O)N2C[C@H]3CNC[C@H]3C2)ccc1-c1ccc(Cl)cc1 [Compound 197-1, N-((R)-1-(4′-chloro-2-methoxy-[1,1′-biphenyl]-4-yl)-1,1-difluoro-3-((3aR,6aS)-hexahydropyrrolo[3,4-c]pyrrol-2(1H)-yl)-3-oxopropan-2-yl)-6-(cyclopentyloxy)naphthalene-2-sulfonamide] |
| 10 to 30 | COc1cc(C(F)(F)[C@@H](NS(=O)(=O)c2ccc3cc(OC4CCCC4)ccc3c2)C(=O)N2C[C@H]3CNC[C@H]3C2)ccc1-c1ccc(Cl)cc1 [Compound 197-2, N-((S)-1-(4′-chloro-2-methoxy-[1,1′-biphenyl]-4-yl)-1,1-difluoro-3-((3aR,6aS)-hexahydropyrrolo[3,4-c]pyrrol-2(1H)-yl)-3-oxopropan-2-yl)-6-(cyclopentyloxy)naphthalene-2-sulfonamide] |

| Compound | IC50 [µM] |
| --- | --- |
| NC1CC2CCC(C1)N2C(=O)[C@@H](NS(=O)(=O)c1ccc(OCC2CCCCC2)cc1)C(F)(F)c1ccc(Cl)s1 (stereo partly drawn) [Compound 194-1, N-((2R)-3-(3-amino-8-azabicyclo[3.2.1]octan-8-yl)-1-(5-chlorothiophen-2-yl)-1,1-difluoro-3-oxopropan-2-yl)-4-(cyclohexylmethoxy)benzenesulfonamide] | 1 to 10 |
| NC1CC2CCC(C1)N2C(=O)[C@H](NS(=O)(=O)c1ccc(OCC2CCCCC2)cc1)C(F)(F)c1ccc(Cl)s1 (stereo partly drawn) [Compound 194-2, N-((2S)-3-(3-amino-8-azabicyclo[3.2.1]octan-8-yl)-1-(5-chlorothiophen-2-yl)-1,1-difluoro-3-oxopropan-2-yl)-4-(cyclohexylmethoxy)benzenesulfonamide] | 30 to 100 |
